Assay results as given in PMC7596504, “Molecular mechanism of the MORC4 ATPase activation” (Nature Communications, 2020).
Several values for one entry are separate records, joined by “and”; a condition that tells them apart may be missing. Equal entries are not always repeated. One block for each molecule: values may come before it.

What was measured:
MORC4 CW domain = molecular target: T1, MORC4 CW domain (Homo sapiens, UniProt Q8TE76); experiment: Tryptophan fluorescence binding of histone H3 peptides to MORC4 CW; details: for Kd: tryptophan fluorescence, 25 °C, pH 6.8, 100 mM NaCl, excitation 295 nm, isolated CW
T1 construct: The CW domain (aa 417–475) of MORC4 was cloned into a pGEX 6p-1 vector; GST (N, cleaved yes); made in house; host or cells: E. coli Rosetta2 (DE3) pLysS or BL21 (DE3) RIL
T1 sequence (Q8TE76 417-475): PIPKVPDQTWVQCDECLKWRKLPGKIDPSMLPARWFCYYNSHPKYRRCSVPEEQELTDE
Procedure: Spectra were recorded at 25 °C on a Fluoromax-3 spectrofluorometer (HORIBA). The samples containing 0.5–1 µM wild-type or mutated ATPaseCW or CW in 20 mM Tris pH 6.8, 100 mM NaCl, 2 mM DTT buffer and progressively increasing concentrations of the histone peptides were excited at 295 nm. Emission spectra were recorded between 320 and 360 nm with a 0.5 nm step size and a 0.5 s integration time and averaged over three scans. The Kd values were determined using a nonlinear least-squares analysis and the equation:1 ΔI=ΔImaxL+P+Kd−L+P+Kd^2−4PL/2P where [L] is the concentration of the histone peptide, [P] is the concentration of the protein, ΔI is the observed change of signal intensity, and ΔImax is the difference in signal intensity of the free and bound states of the protein. The Kd values were averaged over three separate experiments with the error calculated as the standard deviation between the runs.

NCP252 = experiment: FRET, Gal4 titration into Cy3-Cy5 labeled NCP252; format: binding; details: for S1/2: mean of n = 3
Procedure: Histone octamers unlabeled or labeled with Cy5 at H2AK119 were prepared as previously described. NCPs were reconstituted by combining octamer with 1.25× excess DNA and performing slow salt dialysis. Free DNA was then separated from fully reconstituted NCPs by sucrose gradient purification. NCPs for fluorescence polarization assays were reconstituted from unlabeled octamer and 207 bp DNA containing the 601 Widom sequence flanked with a 30 bp linker on either side and internally labeled with Fluorescein 27 bp in from the 5′ end. Cy3-Cy5 labeled NCPs for FRET assays were reconstituted with Cy5 labeled octamer plus either 147 bp 601 Widom DNA containing a LexA transcription factor binding site at bases 8–27[34], or 252 bp DNA containing the 601 Widom sequence with a 75 bp linker at the 3′ end, a 30 bp linker at the 5’ end, and a Gal4 transcription factor binding site at bases 8–26 in the 601 Widom sequence. The 147 bp LexA-binding DNA was labeled with Cy3 on the 5′ end, and the 252 bp Gal4-binding DNA was internally labeled with Cy3 34 bp in from the 5′ end.
LexA was expressed in E. coli, separated from genomic DNA and the proteome by polyethyleneimine precipitation, and salted out with ammonium sulfate. LexA was resuspended in buffer A (20 mM potassium phosphate pH 7, 0.1 mM EDTA, 10% glycerol, 1 mM DTT) + 200 mM NaCl and purified by a linear gradient to A + 800 mM NaCl over either a cellulose phosphate or HiTrap Heparin HP column. Final LexA purification was performed on a hydroxyapatite column and dialyzed into 10 mM PIPES pH 7.0, 0.1 mM EDTA, 10% glycerol, and 200 mM NaCl for storage at −80 °C. The His-tagged DNA-binding domain (aa 1–147) of Gal4 was expressed in E. coli and purified from lysate by a linear gradient of buffer B (25 mM Tris pH 7.5, 200 mM NaCl, 0.2% Tween 20, 20 µM zinc acetate, 1 mM dithiothreitol, and 1 mM PMSF) + 10 mM imidazole to B + 200 mM imidazole over a Nickel-NTA column. Gal4 (1–147) was then further purified by a linear gradient of buffer C (25 mM Tris pH 7.5, 20 µM zinc acetate, 1 mM dithiothreitol, and 1 mM PMSF) + 200 mM NaCl to C + 800 mM NaCl over a Tosoh cation exchange column. Purified Gal4 (1–147) was then dialyzed into 10 mM HEPES pH 7.5, 200 mM NaCl, 10% glycerol, 20 µM zinc acetate, 1 mM DTT, and 1 mM PMSF for storage at −80 °C.
Cy3-Cy5 NCP FRET efficiency measurements were carried out on a Horiba Scientific Fluoromax 4. Samples were excited at 510 and 610 nm and the photoluminescence spectra were collected from 530 to 750 nm and 630 to 750 nm for donor and acceptor excitations, respectively. Each wavelength was integrated for one second, and the excitation and emission slit width were set to 5 nm with 2 nm emission wavelength steps. FRET measurements were computed through the (ratio)A method. LexA titrations were carried out in 20 mM Tris pH 7.5, 75 mM NaCl, 10% glycerol, 0.00625% Tween 20 buffer with 5 nM 147 bp Cy3-Cy5 NCPs mixed in 20 µL reaction volumes and allowed to incubate for 5 mins at 4 °C before FRET of the sample was measured. To measure changes in accessibility of the NCP147 due to MORC4 ATPaseCW binding, LexA titrations were repeated in the presence of NCP binding saturating concentrations of MORC4 ATPaseCW. Gal4 (1–147) titrations were carried out in 10 mM Tris pH 8, 130 mM NaCl, 10% glycerol, 0.0075% Tween 20 buffer with 1 nM 252 bp Cy3-Cy5 nucleosomes mixed in 60 µL reaction volumes and allowed to incubate for 10 mins at room temperature before FRET of the sample was measured. […]

601 DNA = experiment: EMSA with 601 DNA; format: binding; details: for binding to 601 DNA: 147 bp 601 DNA 5 pmol, pH 7.5, 150 mM NaCl, 0.5 h on ice
Procedure: EMSA experiments were performed essentially as described. In brief, increasing amounts of WT or mutant CW or ATPaseCW cassette of MORC4 were incubated with 147 bp 601 DNA (5 pmol) or 50 ng of O’RangeRuler 5 bp ladder (Thermo Scientific) in a DNA-binding buffer containing 20 mM Tris-HCl (pH 7.5), 150 mM NaCl, 2.5 mM MgCl2, and 2 mM DTT for 0.5 h on ice. The reaction mixtures were loaded on 5% native polyacrylamide gels, and electrophoresis was performed in 0.2× Tris-borate-EDTA (TBE) buffer at 100 V for 1.2 h on ice. Gels were stained with SYBR Gold (Invitrogen).

Kd (MORC4 CW domain; mean ± S.D. of n = 3): 2660 nM
Molecule: C[C@H](N)C(=O)N[C@@H](CCCNC(=N)N)C(=O)N[C@H](C(=O)N[C@@H](CCCCN)C(=O)N[C@@H](CCC(N)=O)C(=O)N[C@H](C(=O)N[C@@H](C)C(=O)N[C@@H](CCCNC(=N)N)C(=O)N[C@@H](CCCCN)C(=O)N[C@@H](CO)C(=O)N[C@H](C(=O)NCC(=O)O)[C@@H](C)O)[C@@H](C)O)[C@@H](C)O [H3]

Molecule: Gal4: DNA-binding domain (aa 1–147) of transcription factor Gal4
S1/2 (NCP252; FRET efficiency reduced by 50%, without MORC4, 1 nM NCP252, pH 8, 130 mM NaCl, room temperature, 10 min): 20 ± 4 nM and 20 nM
decrease in ability to bind NCP252 (NCP252; MORC4 ATPaseCW with ATP vs no MORC4): ~ 5 fold
decrease in ability to bind NCP252 (NCP252; MORC4 ATPaseCW without ATP vs no MORC4): 2 fold
S1/2 (NCP252; in presence of MORC4 ATPaseCW with 0.3 mM ATP): 100 ± 7 nM and 100 nM
S1/2 (NCP252; in presence of MORC4 ATPaseCW, without ATP): 40 ± 5 nM and 40 nM

Molecule: CWKRR: triple mutant of the MORC4 CW domain, K460A/R462A/R463A (PIPKVPDQTWVQCDECLKWRKLPGKIDPSMLPARWFCYYNSHPAYAACSVPEEQELTDE; left off: GST, end not stated, cleaved)
binding to 601 DNA (601 DNA): did not observe the 601 DNA band shift even at the DNA to CWKRR molar ratio of 1 to 200

effect on binding of ATPaseCW to 601 DNA (601 DNA; added to ATPaseCW): increases binding to 601 DNA
Molecule: Nc1ncnc2c1ncn2[C@@H]1O[C@H](COP(=O)(O)OP(=O)(O)NP(=O)(O)O)[C@@H](O)[C@H]1O [AMPPNP, adenylyl-imidodiphosphate, reference compound]

Kd (MORC4 CW domain; mean of n = 3): 112 nM
Molecule: C[C@H](N)C(=O)N[C@@H](CCCNC(=N)N)C(=O)N[C@H](C(=O)N[C@@H](CCCC[N+](C)(C)C)C(=O)N[C@@H](CCC(N)=O)C(=O)N[C@H](C(=O)N[C@@H](C)C(=O)N[C@@H](CCCNC(=N)N)C(=O)N[C@@H](CCCCN)C(=O)N[C@@H](CO)C(=O)N[C@H](C(=O)NCC(=O)O)[C@@H](C)O)[C@@H](C)O)[C@@H](C)O [H3K4me3]

higher binding affinity to H3K4me3 than other readers (MORC4 CW domain; MORC4 CW vs other H3K4me3 readers (compared with ref [21],[22])): 7–10 fold
binding to 601 DNA (601 DNA): indicating the direct interaction
Molecule: CW: CW domain (aa 417–475) of MORC4 (PIPKVPDQTWVQCDECLKWRKLPGKIDPSMLPARWFCYYNSHPKYRRCSVPEEQELTDE; left off: GST, end not stated, cleaved)
